Results from ChEMBL document CHEMBL2331106, “Discovery of 5-phenoxy-1,3-dimethyl-1H-pyrazole-4-carboxamides as potent agonists of TGR5 via sequential combinatorial libraries” (Bioorg Med Chem Lett, 2013).

Key:
[1] = Distribution coefficient, log D of the compound by shake flask method; type: physicochemical; details: octanol/water
[2] = molecular target: T1, G-protein coupled bile acid receptor 1 (Homo sapiens, UniProt Q8TDU6); assay: Agonist activity at human TGR5 receptor in CHO cells assessed as elevation of cAMP level by uninduced cAMP detection method in absence of doxycycline; type: functional, cell-based
T1 sequence (Q8TDU6 whole entry): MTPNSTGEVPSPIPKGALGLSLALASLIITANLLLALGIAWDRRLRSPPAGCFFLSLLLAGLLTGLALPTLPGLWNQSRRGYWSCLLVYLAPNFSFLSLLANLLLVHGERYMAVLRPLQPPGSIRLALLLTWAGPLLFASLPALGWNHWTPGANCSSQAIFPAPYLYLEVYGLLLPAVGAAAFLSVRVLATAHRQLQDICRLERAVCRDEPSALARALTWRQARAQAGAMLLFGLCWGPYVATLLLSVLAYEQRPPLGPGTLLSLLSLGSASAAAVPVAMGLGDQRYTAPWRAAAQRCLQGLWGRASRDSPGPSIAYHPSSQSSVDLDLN

[3] = molecular target: T1, G-protein coupled bile acid receptor 1; assay: Agonist activity at doxycycline-promoter regulated overexpressed human TGR5 receptor in CHO cells assessed as elevation of cAMP level by induced-cAMP assay; type: functional, cell-based
[4] = Intrinsic clearance in human liver microsomes; type: ADME, Microsome; details: read-out: CLH
Homo sapiens = species: Homo sapiens; assay: Ex vivo activation of TGR5 in human PBMC assessed as elevation of cAMP level by cAMP assay

Row | logD [1] | EC50 [2] [nM] | EC50 [3] [nM] | microsomal CLint [4] [µL/min/mg] | EC50 (Homo sapiens) [nM] | Structure (SMILES)
1 | 2.4 | > 10000 | 920 | – | – | Cc1nn(C)c(Oc2ccccc2)c1C(=O)N1CCCCC1c1cccnc1 (centres undefined)
2 | 1.4 | > 10000 | > 10000 | – | – | Cc1nn(C)c(Oc2cccnc2)c1C(=O)N1CCCCC1c1cccnc1 (centres undefined)
3 | 3.6 | – | – | > 320 | – | Cc1ccc(N(C)C(=O)c2c(-c3ccccc3Cl)noc2C)cc1Cl
4 | – | – | – | – | 379 | Cc1nn(C)c(Oc2cccc(Cl)c2Cl)c1C(=O)N1CCCC[C@@H]1c1cccnc1
